The target of one experiment is T1, RORγ (Homo sapiens, UniProt P51449).
T1 construct: expressed in transfected cells; host or cells: HEK293
T1 sequence (P51449 1-518): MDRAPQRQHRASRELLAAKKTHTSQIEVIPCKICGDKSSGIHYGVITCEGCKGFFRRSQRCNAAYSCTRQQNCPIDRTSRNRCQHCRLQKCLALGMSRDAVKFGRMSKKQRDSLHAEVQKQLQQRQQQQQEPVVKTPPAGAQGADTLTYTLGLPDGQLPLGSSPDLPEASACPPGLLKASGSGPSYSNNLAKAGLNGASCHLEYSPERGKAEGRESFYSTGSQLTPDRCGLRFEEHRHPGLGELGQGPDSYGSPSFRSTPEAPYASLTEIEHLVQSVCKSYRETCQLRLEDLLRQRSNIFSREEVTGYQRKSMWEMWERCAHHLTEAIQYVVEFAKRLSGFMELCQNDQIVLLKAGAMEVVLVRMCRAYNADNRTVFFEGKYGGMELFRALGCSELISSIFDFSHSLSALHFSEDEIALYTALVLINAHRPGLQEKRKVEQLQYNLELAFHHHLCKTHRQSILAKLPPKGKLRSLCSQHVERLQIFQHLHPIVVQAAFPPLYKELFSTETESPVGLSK
The following applies: reporter gene assay, HEK293; read-out: RORγ inverse agonistic activity (IC50); cited from earlier work.

A further experiment deals with T2, GR (Homo sapiens, UniProt P04150).
T2 construct: expressed in transfected cells; host or cells: HEK293
T2 sequence (P04150 1-777): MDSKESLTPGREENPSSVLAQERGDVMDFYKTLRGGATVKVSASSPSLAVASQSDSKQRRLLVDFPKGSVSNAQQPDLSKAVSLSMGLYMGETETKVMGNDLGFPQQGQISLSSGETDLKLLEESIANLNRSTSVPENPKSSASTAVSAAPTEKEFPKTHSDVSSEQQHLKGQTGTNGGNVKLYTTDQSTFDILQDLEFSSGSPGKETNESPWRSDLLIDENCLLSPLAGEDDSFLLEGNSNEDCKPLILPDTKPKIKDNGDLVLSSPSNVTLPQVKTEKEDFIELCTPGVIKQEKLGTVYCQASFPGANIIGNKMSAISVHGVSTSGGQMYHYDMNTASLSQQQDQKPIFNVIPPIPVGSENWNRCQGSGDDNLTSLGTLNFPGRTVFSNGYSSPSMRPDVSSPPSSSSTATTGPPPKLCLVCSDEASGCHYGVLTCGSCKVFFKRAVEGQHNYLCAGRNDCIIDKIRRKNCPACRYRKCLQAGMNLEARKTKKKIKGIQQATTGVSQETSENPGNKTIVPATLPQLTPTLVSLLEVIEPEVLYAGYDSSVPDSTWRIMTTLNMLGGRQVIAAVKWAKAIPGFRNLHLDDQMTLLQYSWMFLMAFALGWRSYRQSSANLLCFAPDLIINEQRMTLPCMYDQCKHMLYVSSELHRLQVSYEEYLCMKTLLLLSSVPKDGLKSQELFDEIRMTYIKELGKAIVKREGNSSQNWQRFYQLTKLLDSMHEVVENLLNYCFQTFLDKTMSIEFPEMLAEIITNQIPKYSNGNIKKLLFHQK
Nature of the experiment: GR reporter gene assay in HEK293. The experiment is classed as cell-based. The following applies: for IC50: reporter gene assay, HEK293, agonist dexamethasone 1 nM, read-out: GR antagonistic activity (IC50).

The target of a further experiment is T3, PR (Homo sapiens, UniProt P06401).
T3 sequence (P06401 1-933): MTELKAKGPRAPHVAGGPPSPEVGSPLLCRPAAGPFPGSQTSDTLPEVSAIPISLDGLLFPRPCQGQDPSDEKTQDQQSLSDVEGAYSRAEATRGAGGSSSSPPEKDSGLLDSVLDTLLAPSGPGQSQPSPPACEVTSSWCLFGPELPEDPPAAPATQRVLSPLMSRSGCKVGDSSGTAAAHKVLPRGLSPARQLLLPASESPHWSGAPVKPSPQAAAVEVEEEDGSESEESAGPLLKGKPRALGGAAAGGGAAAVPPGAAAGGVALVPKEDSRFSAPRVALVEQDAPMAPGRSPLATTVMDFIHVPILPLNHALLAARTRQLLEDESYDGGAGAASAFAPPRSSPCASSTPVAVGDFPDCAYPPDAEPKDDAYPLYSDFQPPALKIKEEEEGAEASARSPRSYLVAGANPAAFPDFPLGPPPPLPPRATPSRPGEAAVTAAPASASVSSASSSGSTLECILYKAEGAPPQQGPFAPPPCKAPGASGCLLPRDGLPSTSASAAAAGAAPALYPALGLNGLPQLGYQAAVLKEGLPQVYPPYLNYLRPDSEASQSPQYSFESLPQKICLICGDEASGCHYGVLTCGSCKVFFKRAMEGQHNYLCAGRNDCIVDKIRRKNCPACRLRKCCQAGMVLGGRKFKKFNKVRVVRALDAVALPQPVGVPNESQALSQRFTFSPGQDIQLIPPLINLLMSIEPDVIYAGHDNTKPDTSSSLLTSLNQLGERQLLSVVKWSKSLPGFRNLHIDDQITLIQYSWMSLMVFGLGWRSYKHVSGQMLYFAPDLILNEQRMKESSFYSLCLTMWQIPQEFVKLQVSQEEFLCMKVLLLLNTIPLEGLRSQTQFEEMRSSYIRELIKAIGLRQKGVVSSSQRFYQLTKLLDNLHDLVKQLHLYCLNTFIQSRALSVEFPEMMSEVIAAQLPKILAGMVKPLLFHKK
The following applies: cited from earlier work; for IC50: alkaline phosphatase, T47D cells, progesterone 1 nM, read-out: PR antagonistic activity (IC50).

The subject of experiment [1] is LNCaP cells (T877A mutation in the AR LBD). Nature of the experiment: PSA level (ELISA) in LNCaP cell line. The experiment is classed as cell-based, human. The following applies: for IC50: Homo sapiens, LNCaP, dihydrotestosterone 10 nM, 48 h, ± SEM. From the text:
Chronic administration of AR antagonists often leads to the development of resistance. […] In contrast, another AR antagonist, enzalutamide, was reported to antagonize AR mutant T877A [23]. Thus, development of a novel chemical class of AR antagonists, different from flutamide analogs seems an attractive approach for the treatment of AR antagonist-resistant cancer, providing further motivation to evaluate steroid surrogates. Therefore, we investigated the antiandrogenic activity of several potent AR antagonists by means of PSA (prostate-specific antigen, an AR-regulated gene) ELISA (enzyme-linked immunosorbent assay) in human prostate cancer cell line LNCaP, which has T877A mutation in the AR LBD.
The human prostate cancer cell line LNCaP (ECACC, London, UK) was routinely maintained in RPMI1640 containing 10% (v/v) fetal bovine serum, and penicillin/streptomycin at 37 °C in a humidified atmosphere of 5% CO2 in air. Cells were cultured in RPMI1640 without phenol red containing 10% (v/v) charcoal-stripped fetal bovine serum, and penicillin/streptomycin at 37 °C in a humidified atmosphere of 5% CO2 in air for 3 days. Then cells were plated in 96-well plates at 1 × 10^4 cells/well and incubated overnight. On the next day, cells were treated with fresh media containing test compound plus dihydrotestosterone (final concentration 10 nM), and incubated for 48 h. Then, PSA levels were measured in the culture supernatants, after 100-fold dilution with the medium, using ELISA (Immunospec Corp., CA, USA Free prostate-specific antigen cat. #E29-212) according to the manufacturer’s instructions. All data points were carried out twice in triplicate.

With `CCCCn1c(=O)c2ccccc2c2ccccc21` [Compound 7], the results for the IC50 on RORγ and at GR were 15 µM and over 20 µM, respectively.

On to `CCCCn1c(=O)c2cccc(OC)c2c2cc(C(O)(C(F)(F)F)C(F)(F)F)ccc21` [Compound 24], for which the figures for the concentration for half-maximal inhibition (IC50) at RORγ and at GR were 8.5 µM and over 20 µM, respectively.

In the case of `CCCCn1c(=O)c2cc(OC)ccc2c2cc(C(O)(C(F)(F)F)C(F)(F)F)c(OC)cc21` [Compound 27], the IC50 is 12 µM at RORγ, 0.3 µM on PR and 1.7 µM at GR.

`CCn1c(=O)c2ccccc2c2cc(C(O)(C(F)(F)F)C(F)(F)F)ccc21` [Compound 14]: the IC50 at RORγ and on GR was over 20 µM throughout.

Take `CCCCn1c(=O)c2cc(OC)ccc2c2cc(C(O)(C(F)(F)F)C(F)(F)F)ccc21` [Compound 22]: the IC50 is 13 µM on RORγ and 8.2 µM at GR.

With `O=c1[nH]c2ccc(C(O)(C(F)(F)F)C(F)(F)F)cc2c2ccccc12` [Compound 1], the IC50 on RORγ is over 20 µM; in experiment [1], over 10 µM; on GR it was over 20 µM.

Consider `O=c1[nH]c2c(Cl)cc(C(O)(C(F)(F)F)C(F)(F)F)cc2c2ccccc12` [Compound 43, 4-Chloro-2-(1,1,1,3,3,3-hexafluoro-2-hydroxypropan-2-yl)phenanthridin-6(5H)-one], for which the “antiandrogenic activity in LNCaP” value in experiment [1] was “did not show antiandrogenic activity”. In addition, the IC50 in experiment [1] was over 10 µM; at GR, over 20 µM.

Consider `CCCCn1c(=O)c2ccccc2c2cc(C(C)(C)C)ccc21` [Compound 10], for which the IC50 on RORγ is 10 µM; at GR, over 20 µM.

Consider `O=c1[nH]c2ccc(C(O)(C(F)(F)F)C(F)(F)F)cc2c2cc(F)ccc12` [Compound 35], for which the IC50 is 5 µM at RORγ, 0.55 ± 0.11 µM in experiment [1] and 7 µM at GR.

With `CCCCn1c(=O)c2ccccc2c2c(OC)c(C(O)(C(F)(F)F)C(F)(F)F)ccc21` [Compound 18], the IC50 at RORγ and at GR was over 20 µM each time.

Take `CCCCn1c(=O)c2ccccc2c2cc(CO)ccc21` [Compound 11]: the IC50 on RORγ and on GR was over 20 µM in each case.

`O=c1[nH]c2ccc(C(O)(C(F)(F)F)C(F)(F)F)cc2c2ccc(F)cc12` [Compound 34]: the IC50 on RORγ was over 20 µM; in experiment [1], over 10 µM; at GR, over 20 µM.

On to `CCCCCCCCCn1c(=O)c2ccccc2c2cc(C(O)(C(F)(F)F)C(F)(F)F)ccc21` [Compound 17], for which the IC50 on RORγ and on GR was over 20 µM throughout.

`CCCCn1c(=O)c2ccc(OC)cc2c2cc(C(O)(C(F)(F)F)C(F)(F)F)ccc21` [Compound 23]: the IC50 on RORγ was 2.7 µM; on GR, 10 µM.

As to `Cn1c(=O)c2ccccc2c2cc(C(O)(C(F)(F)F)C(F)(F)F)ccc21` [Compound 13], the IC50 at RORγ is over 20 µM; in experiment [1], over 10 µM; at GR, over 20 µM.

In the case of `COc1cc(C(O)(C(F)(F)F)C(F)(F)F)cc2c1[nH]c(=O)c1ccccc12` [Compound 39], the IC50 on RORγ is 9.6 µM; at GR, over 20 µM.

Regarding `CCCCn1c(=O)c2ccccc2c2cc(C(O)(C(F)(F)F)C(F)(F)F)c(OC)cc21` [Compound 19], the IC50 at RORγ was 7.5 µM; at GR, 1.3 µM. For the same molecule, the “enhanced PR activity compared with unsubstituted analog 12” value at PR is “more than 3 fold”. Moreover, at GR, the “improved GR activity compared with 12” value was 5.7 fold.

In the case of `CCCCn1c(=O)c2ccccc2c2cc(C(O)(C(F)(F)F)C(F)(F)F)cc(OC)c21` [Compound 20], the figures for the IC50 at RORγ and at GR were 5.4 µM and 3.9 µM, respectively. Moreover, the “enhanced PR activity compared with unsubstituted analog 12” value at PR is over 2 fold.

Regarding `CCCCn1c(=O)c2c(OC)cccc2c2cc(C(O)(C(F)(F)F)C(F)(F)F)ccc21` [Compound 21], the IC50 is 13 µM on RORγ and 14 µM on GR.

Take `CCCc1cc(C(O)(C(F)(F)F)C(F)(F)F)cc2c1[nH]c(=O)c1ccccc12` [Compound 42]: the figures for the IC50 on RORγ and on GR were 9.9 µM and 16 µM, respectively.

As to `CCCCn1c(=O)c2ccccc2c2cc(C(O)(C(F)(F)F)C(F)(F)F)c(OC)c(OC)c21` [Compound 25], the IC50 at RORγ is 8.5 µM; on PR it was 0.51 µM; on GR, over 20 µM.

With `CCCCn1c(=O)c2c(OC)c(OC)ccc2c2cc(C(O)(C(F)(F)F)C(F)(F)F)ccc21` [Compound 29], the results for the IC50 on RORγ, at PR and on GR were 8 µM, 4.2 µM and 7.9 µM, respectively.

For `CCCCn1c(=O)c2c(OC)cc(OC)cc2c2cc(C(O)(C(F)(F)F)C(F)(F)F)ccc21` [Compound 30], the IC50 on RORγ, at PR and on GR was over 20 µM each time.

For `CCCCn1c(=O)c2cc(OC)ccc2c2cc(C(O)(C(F)(F)F)C(F)(F)F)cc(OC)c21` [Compound 28], the IC50 is 9.7 µM on RORγ, 0.34 µM at PR and 5.2 µM at GR.

`CCc1cc(C(O)(C(F)(F)F)C(F)(F)F)cc2c1[nH]c(=O)c1ccccc12` [Compound 41]: the IC50 at RORγ and on GR was over 20 µM throughout.

Turning to `CCCCn1c(=O)c2cc(OC)c(OC)cc2c2cc(C(O)(C(F)(F)F)C(F)(F)F)ccc21` [Compound 31], the IC50 on RORγ was 19 µM; at PR it was 9.6 µM; on GR it was 17 µM.

These data come from article PMC6073568, “Efficient Lead Finding, Activity Enhancement and Preliminary Selectivity Control of Nuclear Receptor Ligands Bearing a Phenanthridinone Skeleton” (International Journal of Molecular Sciences, 2018).
